Drawing on patent US9718828B2 (MERCK SHARP & DOHME CORP., priority 2011, dated 2017), this text covers EC50 for 21 compounds.

The term pEC50 denotes −log10 of the EC50, conventionally taken in molar units.

pEC50: −log10 of the molar value. Counter-ions that a name gives are not always drawn. Bounds are passed on as bounds.

For the first assay, the target named is Btk enzyme (His-Btk) (Homo sapiens (Human), UniProt Q06187). The assay can be described thus: Btk enzyme activity, IMAP fluorescence polarization assay (Assay Method A).
Chain of Btk enzyme (His-Btk) (Q06187 whole entry): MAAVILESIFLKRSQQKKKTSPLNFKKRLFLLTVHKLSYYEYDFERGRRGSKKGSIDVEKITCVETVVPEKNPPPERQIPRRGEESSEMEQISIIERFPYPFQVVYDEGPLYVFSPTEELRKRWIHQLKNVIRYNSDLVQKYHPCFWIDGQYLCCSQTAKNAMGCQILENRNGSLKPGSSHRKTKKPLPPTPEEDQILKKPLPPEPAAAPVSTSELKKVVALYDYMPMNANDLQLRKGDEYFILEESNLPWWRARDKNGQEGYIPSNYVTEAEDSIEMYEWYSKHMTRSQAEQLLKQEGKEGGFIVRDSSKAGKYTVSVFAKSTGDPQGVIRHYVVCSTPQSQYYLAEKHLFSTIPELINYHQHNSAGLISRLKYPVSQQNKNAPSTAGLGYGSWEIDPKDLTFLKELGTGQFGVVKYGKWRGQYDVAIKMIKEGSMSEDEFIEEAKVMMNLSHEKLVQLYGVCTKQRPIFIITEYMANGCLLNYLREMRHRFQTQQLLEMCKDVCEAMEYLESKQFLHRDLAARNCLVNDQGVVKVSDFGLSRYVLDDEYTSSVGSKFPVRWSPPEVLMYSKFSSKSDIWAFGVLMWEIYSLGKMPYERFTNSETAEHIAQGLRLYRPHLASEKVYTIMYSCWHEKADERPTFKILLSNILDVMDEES
Conditions: not given
Background: Polarisation of emitted light reports the rotation of a fluorescent probe.
For the compound `Nc1nccn2c([C@@H]3CCCN(C(=O)C(=O)C(F)(F)F)C3)nc(-c3ccc(C(=O)Nc4cc(C5CC5)ccn4)cc3)c12` [Example 115, (R)-4-(8-amino-3-(1-(3,3,3-trifluoro-2-oxopropanoyl)piperidin-3-yl)imidazo[1,5-a]pyrazin-1-yl)-N-(4-cyclopropylpyridin-2-yl)benzamide], the pEC50 is 6.00 to 7.00. Same read-out and setting: as for `Nc1nccn2c([C@@H]3CCCN(C(=O)NC45CC6CC(CC(C6)C4)C5)C3)nc(-c3ccc(C(=O)Nc4cc(C5CC5)ccn4)cc3)c12` [Example 121], the figure is 7.00 to 8.00.

In turn, `Nc1nccn2c([C@@H]3CCCN(C(=O)C(=O)c4ccco4)C3)nc(-c3ccc(C(=O)Nc4cc(C5CC5)ccn4)cc3)c12` [Example 123, (R)-4-(8-amino-3-(1-(2-(furan-2-yl)-2-oxoacetyl)piperidin-3-yl)imidazo[1,5-a]pyrazin-1-yl)-N-(4-cyclopropylpyridin-2-yl)benzamide] had a pEC50 of 7.00 to 8.00. The same measure, in the same setting: as for `CN(C)CCCC(=O)N1CC[C@@H](c2nc(-c3ccc(C(=O)Nc4ccccn4)cc3)c3c(N)nccn23)C1` [Example 124, (R)-4-(8-amino-3-(1-(4-(dimethylamino)butanoyl)pyrrolidin-3-yl)imidazo[1,5-a]pyrazin-1-yl)-N-(pyridin-2-yl)benzamide], the figure is 6.00 to 7.00; as for `COCCC(=O)N1CC[C@@H](c2nc(-c3ccc(C(=O)Nc4ccccn4)cc3)c3c(N)nccn23)C1` [Example 125, (R)-4-(8-amino-3-(1-(3-methoxypropanoyl)pyrrolidin-3-yl)imidazo[1,5-a]pyrazin-1-yl)-N-(pyridin-2-yl)benzamide, TFA salt], 6.00 to 7.00.

Take `CC1(C(=O)N2CC[C@@H](c3nc(-c4ccc(C(=O)Nc5ccccn5)cc4)c4c(N)nccn34)C2)COC1` [Example 126, (R)-4-(8-amino-3-(1-(3-methyloxetane-3-carbonyl)pyrrolidin-3-yl)imidazo[1,5-a]pyrazin-1-yl)-N-(pyridin-2-yl)benzamide, TFA salt]: the pEC50 was 6.00 to 7.00. The same measure, in the same setting: to `CC(C)C(=O)N1CC[C@@H](c2nc(-c3ccc(C(=O)Nc4ccccn4)cc3)c3c(N)nccn23)C1` [Example 127, (R)-4-(8-amino-3-(1-isobutyrylpyrrolidin-3-yl)imidazo[1,5-a]pyrazin-1-yl)-N-(pyridin-2-yl)benzamide, TFA salt] belongs 6.00 to 7.00; to `Nc1nccn2c([C@@H]3CCN(C(=O)C4CCOC4)C3)nc(-c3ccc(C(=O)Nc4ccccn4)cc3)c12` (stereo partly drawn) [Example 128, (R)-4-(8-amino-3-(1-(tetrahydrofuran-3-carbonyl)pyrrolidin-3-yl)imidazo[1,5-a]pyrazin-1-yl)-N-(pyridin-2-yl)benzamide, TFA salt], 6.00 to 7.00; to `CC(C)C(=O)N1CCC(c2nc(-c3ccc(C(=O)Nc4ccccn4)cc3)c3c(N)nccn23)CC1` [Example 129, 4-(8-amino-3-(1-isobutyrylpiperidin-4-yl)imidazo[1,5-a]pyrazin-1-yl)-N-(pyridin-2-yl)benzamide], 6.00 to 7.00. Still for that read-out and setting: to `CC(CNC(=O)C1(C)COC1)c1nc(-c2ccc(C(=O)Nc3cc(C(F)(F)F)ccn3)cc2)c2c(N)nccn12` (stereo not drawn) [Example 131, N-(2-(8-amino-1-(4-(4-(trifluoromethyl)pyridin-2-ylcarbamoyl)phenyl)imidazo[1,5-a]pyrazin-3-yl)propyl)-3-methyloxetane-3-carboxamide] belongs > 8.00; to `CC(CNC(=O)OCc1ccccc1)c1nc(-c2ccc(C(=O)Nc3cc(C(F)(F)F)ccn3)cc2)c2c(N)nccn12` (stereo not drawn) [Example 132, benzyl 2-(8-amino-1-(4-(4-(trifluoromethyl)pyridin-2-ylcarbamoyl)phenyl)imidazo[1,5-a]pyrazin-3-yl)propylcarbamate], 7.00 to 8.00. The same measure, in the same setting: to `Nc1nccn2c([C@@H]3CCCN(Cc4ccccc4)C3)nc(-c3ccc(C(=O)Nc4ccccn4)cc3)c12` [Example 133, (R)-4-(8-amino-3-(1-benzylpiperidin-3-yl)imidazo[1,5-a]pyrazin-1-yl)-N-(pyridin-2-yl)benzamide] belongs 6.00 to 7.00. The compound `Nc1nccn2c([C@@H]3CCCN(CCc4ccccc4)C3)nc(-c3ccc(C(=O)Nc4ccccn4)cc3)c12` [Example 134, (R)-4-(8-amino-3-(1-phenethylpiperidin-3-yl)imidazo[1,5-a]pyrazin-1-yl)-N-(pyridin-2-yl)benzamide, TFA salt] had a negative logarithm of the EC50 (pEC50) of 7.00 to 8.00. In turn, `Nc1nccn2c([C@@H]3CCCN(CCC(F)(F)F)C3)nc(-c3ccc(C(=O)Nc4ccccn4)cc3)c12` [Example 136, (R)-4-(8-amino-3-(1-(3,3,3-trifluoropropyl)piperidin-3-yl)imidazo[1,5-a]pyrazin-1-yl)-N-(pyridin-2-yl)benzamide TFA salt] had a pEC50 of 7.00 to 8.00.

The assay is the same for the next values; noted with them: read-out: EC50 Btk activity values - Assay Method A; IMAP-FP, 60 min pre-incubation, 5 μM ATP; class 100-1000 is given as ≧100 nM-<1 μM.
Turning to `CCC(=O)C(=O)N1CCC[C@@H](c2nc(-c3ccc(C(=O)Nc4cc(C5CC5)ccn4)cc3)c3c(N)nccn23)C1` [Example 114, (R)-4-(8-amino-3-(1-(2-oxobutanoyl)piperidin-3 yl)imidazo[1,5-a]pyrazin-1-yl)-N-(4-cyclopropylpyridin-2-yl)benzamide], the pEC50 is > 8.00. For the compound `Cc1nnc(C(=O)N2CCC[C@@H](c3nc(-c4ccc(C(=O)Nc5cc(C6CC6)ccn5)cc4)c4c(N)nccn34)C2)o1` [Example 116, (R)-4-(8-amino-3-(1-(5-methyl-1,3,4-oxadiazole-2-carbonyl)piperidin-3-yl)imidazo[1,5-a]pyrazin-1-yl)-N-(4-cyclopropylpyridin-2-yl)benzamide], the pEC50 is > 8.00. On the same count and under the same terms, to `N#Cc1ccc(C(=O)N2CCC[C@@H](c3nc(-c4ccc(C(=O)Nc5cc(C6CC6)ccn5)cc4)c4c(N)nccn34)C2)cn1` [Example 117, (R)-4-(8-amino-3-(1-(6-cyanonicotinoyl)piperidin-3-yl)imidazo[1,5-a]pyrazin-1-yl)-N-(4-cyclopropylpyridin-2-yl)benzamide .] belongs > 8.00. Still for that read-out and setting: as for `N#Cc1csc(C(=O)N2CCC[C@@H](c3nc(-c4ccc(C(=O)Nc5cc(C6CC6)ccn5)cc4)c4c(N)nccn34)C2)c1` [Example 118, (R)-4-(8-amino-3-(1-(4-cyanothiophene-2-carbonyl)piperidin-3 yl)imidazo[1,5-a]pyrazin-1-yl)-N-(4-cyclopropylpyridin-2-yl)benzamide], the figure is > 8.00; as for `Nc1nccn2c([C@@H]3CCCN(C(=O)Nc4ccccc4Cl)C3)nc(-c3ccc(C(=O)Nc4cc(C5CC5)ccn4)cc3)c12` [Example 120, (R)-3-(8-amino-1-(4-(4-cyclopropylpyridin-2-ylcarbamoyl)phenyl)imidazo [1,5-a]pyrazin-3-yl)-N-(2-chlorophenyl)piperidine-1-carboxamide], > 8.00; as for `CCC(=O)NCC(C)c1nc(-c2ccc(C(=O)Nc3cc(C(F)(F)F)ccn3)cc2)c2c(N)nccn12` (stereo not drawn) [Example 130, 4-(8-amino-3-(1-propionamidopropan-2-yl)imidazo[1,5-a]pyrazin-1-yl)-N-(4-(trifluoromethyl)pyridin-2-yl)benzamide], > 8.00. `Cn1cc(CN2CCC[C@@H](c3nc(-c4ccc(C(=O)Nc5ccccn5)cc4)c4c(N)nccn34)C2)cn1` [Example 135, (R)-4-(8-amino-3-(1-((1-methyl-1H-pyrazol-4-yl)methyl)piperidin-3-yl)imidazo[1,5-a]pyrazin-1-yl)-N-(pyridin-2-yl)benzamide, TFA salt]: the negative-log EC50 (pEC50) was > 8.00.
